The numbers were not newly measured in patent US20230309918A1, “TREATING PATHOGENIC INFECTIONS” (priority 2020, published 2023), which cites them from elsewhere.

The conditions of data set [1]: kidneys.
For data set [2] the following is noted: in vivo.
The next data set concerns NF-κB. The note with it: pro-inflammatory signaling pathway involved in Lyme-induced inflammation.
Another data set relates to HSV-1 IE gene expression. The note with it: diminishes the ability of the virus to launch the lytic infectious cycle.
In another data set the test system is Borrelia burgdorferi. The note with it: one animal study (Pothineni et al., Sci Rep 2020).

As to `Nc1nc2c(ncn2COCCO)c(=O)[nH]1` [Acyclovir], the toxic side effects result in data set [1] is “toxic side effects in the kidneys”.

For the molecule `COc1cc(/C=C/C(=O)CC(=O)/C=C/c2ccc(O)c(OC)c2)ccc1O` [Curcumin], in data set [2], the oral bioavailability entry was “poor”. Further, in the data set on NF-κB, the “activation of NF-κB” value was “blocking the activation of NF-κB”. Further, the “effect on HSV-1 IE gene expression” value with HSV-1 IE gene expression was “affect HSV-1 IE gene expression”.

Take `O=c1c(O)c(-c2ccc(O)c(O)c2)oc2cc(O)cc(O)c12` [Quercetin]: the solubility in water entry is given as “poorly soluble”.

Regarding `CC1(C)S[C@@H]2[C@H](NC(=O)[C@H](NC(=O)N3CCNC3=O)c3ccccc3)C(=O)N2[C@H]1C(=O)O` [azlocillin], the “killing of disease-causing bacteria Borrelia burgdorferi” value with Borrelia burgdorferi is “completely kills off”.
